Like-named read-outs stand apart in the source and are kept apart here.
Tests used:
Type in all cases: biochemical
PRKCZ = molecular target: T1, PRKCZ (Homo sapiens, UniProt Q05513); assay: ProfilerPro Kinase Selectivity, PRKCZ; settings: tested at 10 uM, read-out: percent inhibition of the kinase activity
T1 construct: purchased Caliper LifeSciences
Description: (§1) Kinome selectivity profiling was performed using two example compounds according to the manufacturer's instructions using Caliper LifeSciences' ProfilerPro Kinase Selectivity Assay Kits. Compounds prepared in Examples 1 and 7 were tested at 10 uM and data were recorded using the Caliper LabChip® EZ Reader™. Each compounds' percent inhibition of the kinase activity measured in this manner is reported in the following lists.

FES = molecular target: T2, FES (Homo sapiens, UniProt P07332); assay: ProfilerPro Kinase Selectivity, FES; settings: tested at 10 uM, read-out: percent inhibition of the kinase activity
T2 construct: purchased Caliper LifeSciences
Description: as §1

MAPKAPK5 = molecular target: T3, MAPKAPK5 (Homo sapiens, UniProt Q8IW41); assay: ProfilerPro Kinase Selectivity, MAPKAPK5; settings: tested at 10 uM, read-out: percent inhibition of the kinase activity
T3 construct: purchased Caliper LifeSciences
Description: as §1

EPHA3 = molecular target: T4, EPHA3 (Homo sapiens, UniProt P29320); assay: ProfilerPro Kinase Selectivity, EPHA3; settings: tested at 10 uM, read-out: percent inhibition of the kinase activity
T4 construct: purchased Caliper LifeSciences
Description: as §1

RSK3 = molecular target: T5, RSK3 (Homo sapiens, UniProt Q15349); assay: ProfilerPro Kinase Selectivity, RSK3; settings: tested at 10 uM, read-out: percent inhibition of the kinase activity
T5 construct: purchased Caliper LifeSciences
Description: as §1

EPHA1 = molecular target: T6, EPHA1 (Homo sapiens, UniProt P21709); assay: ProfilerPro Kinase Selectivity, EPHA1; settings: tested at 10 uM, read-out: percent inhibition of the kinase activity
T6 construct: purchased Caliper LifeSciences
Description: as §1

FYN = molecular target: T7, FYN (Homo sapiens, UniProt P06241); assay: ProfilerPro Kinase Selectivity, FYN; settings: tested at 10 uM, read-out: percent inhibition of the kinase activity
T7 construct: purchased Caliper LifeSciences
Description: as §1

EPHB2 = molecular target: T8, EPHB2 (Homo sapiens, UniProt P29323); assay: ProfilerPro Kinase Selectivity, EPHB2; settings: tested at 10 uM, read-out: percent inhibition of the kinase activity
T8 construct: purchased Caliper LifeSciences
Description: as §1

PKD3 = molecular target: T9, PKD3 (Homo sapiens, UniProt O94806); assay: ProfilerPro Kinase Selectivity, PKD3; settings: tested at 10 uM, read-out: percent inhibition of the kinase activity
T9 construct: purchased Caliper LifeSciences
Description: as §1

PKD2 = molecular target: T10, PKD2 (Homo sapiens, UniProt Q9BZL6); assay: ProfilerPro Kinase Selectivity, PKD2; settings: tested at 10 uM, read-out: percent inhibition of the kinase activity
T10 construct: purchased Caliper LifeSciences
Description: as §1

LYN = molecular target: T11, LYN (Homo sapiens, UniProt P07948); assay: ProfilerPro Kinase Selectivity, LYN; settings: tested at 10 uM, read-out: percent inhibition of the kinase activity
T11 construct: purchased Caliper LifeSciences
Description: as §1

TEC = molecular target: T12, TEC (Homo sapiens, UniProt P42680); assay: ProfilerPro Kinase Selectivity, TEC; settings: tested at 10 uM, read-out: percent inhibition of the kinase activity
T12 construct: purchased Caliper LifeSciences
Description: as §1

DAPK1 = molecular target: T13, DAPK1 (Homo sapiens, UniProt P53355); assay: ProfilerPro Kinase Selectivity, DAPK1; settings: tested at 10 uM, read-out: percent inhibition of the kinase activity
T13 construct: purchased Caliper LifeSciences
Description: as §1

LRRK2 (G2019S) = molecular target: T14, LRRK2 (G2019S) (Homo sapiens, UniProt Q5S007, G2019S); assay: ProfilerPro Kinase Selectivity, LRRK2 (G2019S); settings: read-out: percent inhibition of the kinase activity
T14 construct: purchased Caliper LifeSciences
Description: as §1, with “Reader™.” for “Reader™. Each compounds' percent inhibition of the kinase activity measured in this manner is reported in the following lists.”

FGFR1 V561M = molecular target: T15, FGFR1 V561M (Homo sapiens, UniProt P11362, V561M); assay: ProfilerPro Kinase Selectivity, FGFR1 V561M; settings: tested at 10 uM, read-out: percent inhibition of the kinase activity
T15 construct: purchased Caliper LifeSciences
Description: as §1

EPHB4 = molecular target: T16, EPHB4 (Homo sapiens, UniProt P54760); assay: ProfilerPro Kinase Selectivity, EPHB4; settings: tested at 10 uM, read-out: percent inhibition of the kinase activity
T16 construct: purchased Caliper LifeSciences
Description: as §1

AMPKA1 = molecular target: T17, AMPKA1 (Homo sapiens, UniProt Q13131); assay: ProfilerPro Kinase Selectivity, AMPKA1; settings: tested at 10 uM, read-out: percent inhibition of the kinase activity
T17 construct: purchased Caliper LifeSciences
Description: as §1

CAMK2B = molecular target: T18, CAMK2B (Homo sapiens, UniProt Q13554); assay: ProfilerPro Kinase Selectivity, CAMK2B; settings: tested at 10 uM, read-out: percent inhibition of the kinase activity
T18 construct: purchased Caliper LifeSciences
Description: as §1

GSK3A = molecular target: T19, GSK3A (Homo sapiens, UniProt P49840); assay: ProfilerPro Kinase Selectivity, GSK3A; settings: tested at 10 uM, read-out: percent inhibition of the kinase activity
T19 construct: purchased Caliper LifeSciences
Description: as §1

TRKC = molecular target: T20, TRKC (Homo sapiens, UniProt Q16288); assay: ProfilerPro Kinase Selectivity, TRKC; settings: tested at 10 uM, read-out: percent inhibition of the kinase activity
T20 construct: purchased Caliper LifeSciences
Description: as §1

NUAK1 = molecular target: T21, NUAK1 (Homo sapiens, UniProt O60285); assay: ProfilerPro Kinase Selectivity, NUAK1; settings: tested at 10 uM, read-out: percent inhibition of the kinase activity
T21 construct: purchased Caliper LifeSciences
Description: as §1

INSR = molecular target: T22, INSR (Homo sapiens, UniProt P06213); assay: ProfilerPro Kinase Selectivity, INSR; settings: tested at 10 uM, read-out: percent inhibition of the kinase activity
T22 construct: purchased Caliper LifeSciences
Description: as §1

BRSK2 = molecular target: T23, BRSK2 (Homo sapiens, UniProt Q8IWQ3); assay: ProfilerPro Kinase Selectivity, BRSK2; settings: tested at 10 uM, read-out: percent inhibition of the kinase activity
T23 construct: purchased Caliper LifeSciences
Description: as §1

EGFR = molecular target: T24, EGFR (Homo sapiens, UniProt P00533); assay: ProfilerPro Kinase Selectivity, EGFR; settings: tested at 10 uM, read-out: percent inhibition of the kinase activity
T24 construct: purchased Caliper LifeSciences
Description: as §1

EPHA4 = molecular target: T25, EPHA4 (Homo sapiens, UniProt P54764); assay: ProfilerPro Kinase Selectivity, EPHA4; settings: tested at 10 uM, read-out: percent inhibition of the kinase activity
T25 construct: purchased Caliper LifeSciences
Description: as §1

CAMK2G = molecular target: T26, CAMK2G (Homo sapiens, UniProt Q13555); assay: ProfilerPro Kinase Selectivity, CAMK2G; settings: tested at 10 uM, read-out: percent inhibition of the kinase activity
T26 construct: purchased Caliper LifeSciences
Description: as §1

DYRK3 = molecular target: T27, DYRK3 (Homo sapiens, UniProt O43781); assay: ProfilerPro Kinase Selectivity, DYRK3; settings: tested at 10 uM, read-out: percent inhibition of the kinase activity
T27 construct: purchased Caliper LifeSciences
Description: as §1

DDR2 = molecular target: T28, DDR2 (Homo sapiens, UniProt Q16832); assay: ProfilerPro Kinase Selectivity, DDR2; settings: tested at 10 uM, read-out: percent inhibition of the kinase activity
T28 construct: purchased Caliper LifeSciences
Description: as §1

PAK5 = molecular target: T29, PAK5 (Homo sapiens, UniProt Q9P286); assay: ProfilerPro Kinase Selectivity, PAK5; settings: tested at 10 uM, read-out: percent inhibition of the kinase activity
T29 construct: purchased Caliper LifeSciences
Description: as §1

AURA = molecular target: T30, AURA (Homo sapiens, UniProt O14965); assay: ProfilerPro Kinase Selectivity, AURA; settings: tested at 10 uM, read-out: percent inhibition of the kinase activity
T30 construct: purchased Caliper LifeSciences
Description: as §1

PRKCQ = molecular target: T31, PRKCQ (Homo sapiens, UniProt Q04759); assay: ProfilerPro Kinase Selectivity, PRKCQ; settings: tested at 10 uM, read-out: percent inhibition of the kinase activity
T31 construct: purchased Caliper LifeSciences
Description: as §1

NTRK2 = molecular target: T32, NTRK2 (Homo sapiens, UniProt Q16620); assay: ProfilerPro Kinase Selectivity, NTRK2; settings: tested at 10 uM, read-out: percent inhibition of the kinase activity
T32 construct: purchased Caliper LifeSciences
Description: as §1

MAPKAPK3 = molecular target: T33, MAPKAPK3 (Homo sapiens, UniProt Q16644); assay: ProfilerPro Kinase Selectivity, MAPKAPK3; settings: tested at 10 uM, read-out: percent inhibition of the kinase activity
T33 construct: purchased Caliper LifeSciences
Description: as §1

PDGFR A(550) = molecular target: T34, PDGFR A(550) (Homo sapiens, UniProt P16234); assay: ProfilerPro Kinase Selectivity, PDGFR A(550); settings: tested at 10 uM, read-out: percent inhibition of the kinase activity
T34 construct: purchased Caliper LifeSciences
Description: as §1

ITK = molecular target: T35, ITK (Homo sapiens, UniProt Q08881); assay: ProfilerPro Kinase Selectivity, ITK; settings: tested at 10 uM, read-out: percent inhibition of the kinase activity
T35 construct: purchased Caliper LifeSciences
Description: as §1

FLT-3 D835Y = molecular target: T36, FLT-3 D835Y (Homo sapiens, UniProt P36888, D835Y); assay: ProfilerPro Kinase Selectivity, FLT-3 D835Y; settings: tested at 10 uM, read-out: percent inhibition of the kinase activity
T36 construct: purchased Caliper LifeSciences
Description: as §1

MET = molecular target: T37, MET (Homo sapiens, UniProt P08581); assay: ProfilerPro Kinase Selectivity, MET; settings: tested at 10 uM, read-out: percent inhibition of the kinase activity
T37 construct: purchased Caliper LifeSciences
Description: as §1

T30 sequence (O14965 whole entry, species assumed): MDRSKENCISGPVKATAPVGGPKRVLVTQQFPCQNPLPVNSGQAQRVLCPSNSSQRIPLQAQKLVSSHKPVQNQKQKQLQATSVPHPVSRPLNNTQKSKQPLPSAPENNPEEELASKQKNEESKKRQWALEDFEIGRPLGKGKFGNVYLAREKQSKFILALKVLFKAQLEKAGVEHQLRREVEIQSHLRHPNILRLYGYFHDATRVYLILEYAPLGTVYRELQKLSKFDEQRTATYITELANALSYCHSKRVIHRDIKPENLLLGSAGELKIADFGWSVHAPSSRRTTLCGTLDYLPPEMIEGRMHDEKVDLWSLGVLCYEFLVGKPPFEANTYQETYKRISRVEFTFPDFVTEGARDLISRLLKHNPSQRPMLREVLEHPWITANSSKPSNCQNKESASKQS
T21 sequence (O60285 whole entry, species assumed): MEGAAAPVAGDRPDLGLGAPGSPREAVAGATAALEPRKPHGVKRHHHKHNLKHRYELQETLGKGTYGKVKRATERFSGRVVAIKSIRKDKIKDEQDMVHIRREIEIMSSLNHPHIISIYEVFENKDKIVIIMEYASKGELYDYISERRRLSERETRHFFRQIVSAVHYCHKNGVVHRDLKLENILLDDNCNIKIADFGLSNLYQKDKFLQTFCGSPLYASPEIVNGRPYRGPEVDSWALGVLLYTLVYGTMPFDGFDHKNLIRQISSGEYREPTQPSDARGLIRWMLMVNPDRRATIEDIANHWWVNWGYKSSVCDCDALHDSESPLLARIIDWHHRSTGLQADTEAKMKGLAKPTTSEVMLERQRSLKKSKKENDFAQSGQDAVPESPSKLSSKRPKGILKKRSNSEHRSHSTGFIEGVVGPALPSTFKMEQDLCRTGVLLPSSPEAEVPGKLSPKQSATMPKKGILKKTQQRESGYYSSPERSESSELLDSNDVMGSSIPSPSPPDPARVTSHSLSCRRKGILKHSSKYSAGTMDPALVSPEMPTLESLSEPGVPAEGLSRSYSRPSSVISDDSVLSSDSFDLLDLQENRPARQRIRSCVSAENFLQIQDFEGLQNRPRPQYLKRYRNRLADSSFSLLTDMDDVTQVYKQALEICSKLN
T5 sequence (Q15349 whole entry, species assumed): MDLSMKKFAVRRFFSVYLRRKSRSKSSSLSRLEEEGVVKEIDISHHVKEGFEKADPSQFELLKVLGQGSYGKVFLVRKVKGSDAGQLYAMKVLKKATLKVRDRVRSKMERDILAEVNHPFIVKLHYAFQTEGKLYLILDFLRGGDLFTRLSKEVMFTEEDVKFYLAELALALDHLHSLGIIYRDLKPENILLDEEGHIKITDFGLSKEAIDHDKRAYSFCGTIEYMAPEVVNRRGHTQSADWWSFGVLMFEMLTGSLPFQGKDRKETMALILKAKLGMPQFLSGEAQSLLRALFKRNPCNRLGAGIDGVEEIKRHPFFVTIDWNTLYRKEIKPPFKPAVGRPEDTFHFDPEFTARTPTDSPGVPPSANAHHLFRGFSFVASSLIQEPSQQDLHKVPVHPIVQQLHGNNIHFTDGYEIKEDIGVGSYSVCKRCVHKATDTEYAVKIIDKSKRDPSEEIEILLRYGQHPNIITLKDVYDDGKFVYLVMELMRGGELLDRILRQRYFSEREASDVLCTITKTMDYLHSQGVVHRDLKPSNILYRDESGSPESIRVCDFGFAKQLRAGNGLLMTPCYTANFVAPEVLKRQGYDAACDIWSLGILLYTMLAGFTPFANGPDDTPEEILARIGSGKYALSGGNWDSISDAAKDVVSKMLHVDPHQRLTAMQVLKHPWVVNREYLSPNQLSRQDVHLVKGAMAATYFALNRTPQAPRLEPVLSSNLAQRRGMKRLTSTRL
T10 sequence (Q9BZL6 whole entry): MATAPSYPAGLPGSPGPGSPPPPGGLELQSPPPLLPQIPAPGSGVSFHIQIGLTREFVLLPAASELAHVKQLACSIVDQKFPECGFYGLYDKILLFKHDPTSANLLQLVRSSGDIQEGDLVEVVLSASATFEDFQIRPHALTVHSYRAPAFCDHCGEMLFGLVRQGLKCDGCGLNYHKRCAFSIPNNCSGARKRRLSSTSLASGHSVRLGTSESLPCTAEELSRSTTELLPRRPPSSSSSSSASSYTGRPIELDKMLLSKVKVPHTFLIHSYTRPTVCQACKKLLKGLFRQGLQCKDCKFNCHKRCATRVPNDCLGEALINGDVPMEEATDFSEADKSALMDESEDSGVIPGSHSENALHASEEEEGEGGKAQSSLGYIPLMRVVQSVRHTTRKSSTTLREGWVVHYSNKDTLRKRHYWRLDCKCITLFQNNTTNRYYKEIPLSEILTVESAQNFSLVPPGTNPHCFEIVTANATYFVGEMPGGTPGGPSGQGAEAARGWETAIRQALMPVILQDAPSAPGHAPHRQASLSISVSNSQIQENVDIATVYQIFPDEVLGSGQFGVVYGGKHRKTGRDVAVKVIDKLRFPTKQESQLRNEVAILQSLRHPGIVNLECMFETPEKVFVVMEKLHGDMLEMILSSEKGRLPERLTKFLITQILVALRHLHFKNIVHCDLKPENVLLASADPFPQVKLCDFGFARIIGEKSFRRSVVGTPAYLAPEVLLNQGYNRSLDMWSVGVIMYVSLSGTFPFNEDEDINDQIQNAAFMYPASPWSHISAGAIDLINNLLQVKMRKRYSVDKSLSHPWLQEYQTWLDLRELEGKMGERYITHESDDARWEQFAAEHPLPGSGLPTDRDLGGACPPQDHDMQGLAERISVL
T32 sequence (Q16620 32-822, species assumed): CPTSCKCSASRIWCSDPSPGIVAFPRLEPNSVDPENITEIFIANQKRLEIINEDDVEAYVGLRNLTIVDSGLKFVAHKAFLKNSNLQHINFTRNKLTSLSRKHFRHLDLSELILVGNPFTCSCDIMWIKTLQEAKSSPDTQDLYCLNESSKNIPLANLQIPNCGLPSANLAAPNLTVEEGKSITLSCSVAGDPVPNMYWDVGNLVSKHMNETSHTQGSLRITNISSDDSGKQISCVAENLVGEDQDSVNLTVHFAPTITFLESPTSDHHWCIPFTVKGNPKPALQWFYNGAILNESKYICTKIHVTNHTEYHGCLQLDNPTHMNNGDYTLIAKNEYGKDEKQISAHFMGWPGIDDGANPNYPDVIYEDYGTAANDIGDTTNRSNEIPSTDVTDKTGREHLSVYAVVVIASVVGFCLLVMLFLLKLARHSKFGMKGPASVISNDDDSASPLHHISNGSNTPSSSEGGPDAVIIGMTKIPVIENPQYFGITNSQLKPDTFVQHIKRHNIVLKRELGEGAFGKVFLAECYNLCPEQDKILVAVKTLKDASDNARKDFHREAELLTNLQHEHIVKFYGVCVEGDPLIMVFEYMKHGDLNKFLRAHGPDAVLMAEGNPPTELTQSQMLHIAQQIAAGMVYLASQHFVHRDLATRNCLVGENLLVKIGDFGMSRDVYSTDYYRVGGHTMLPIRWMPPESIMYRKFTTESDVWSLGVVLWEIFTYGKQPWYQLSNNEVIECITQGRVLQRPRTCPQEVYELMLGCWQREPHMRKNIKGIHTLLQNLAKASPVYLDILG
T27 sequence (O43781 whole entry, species assumed): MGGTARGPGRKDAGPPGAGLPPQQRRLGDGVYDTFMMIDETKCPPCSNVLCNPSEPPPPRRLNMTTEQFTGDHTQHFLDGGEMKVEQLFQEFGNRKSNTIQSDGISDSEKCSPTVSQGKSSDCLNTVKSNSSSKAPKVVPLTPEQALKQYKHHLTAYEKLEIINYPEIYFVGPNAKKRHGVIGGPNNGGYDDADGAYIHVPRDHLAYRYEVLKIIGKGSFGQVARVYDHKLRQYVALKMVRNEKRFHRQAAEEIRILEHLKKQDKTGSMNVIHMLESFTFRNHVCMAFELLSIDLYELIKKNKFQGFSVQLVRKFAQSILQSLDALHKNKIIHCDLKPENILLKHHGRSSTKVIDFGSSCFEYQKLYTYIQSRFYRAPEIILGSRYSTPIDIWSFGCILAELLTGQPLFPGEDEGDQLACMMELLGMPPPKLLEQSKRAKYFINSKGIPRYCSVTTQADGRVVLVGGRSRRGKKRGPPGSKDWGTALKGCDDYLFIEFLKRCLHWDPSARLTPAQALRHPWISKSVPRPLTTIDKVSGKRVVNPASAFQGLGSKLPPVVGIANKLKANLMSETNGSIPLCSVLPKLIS
T2 sequence (P07332 whole entry, species assumed): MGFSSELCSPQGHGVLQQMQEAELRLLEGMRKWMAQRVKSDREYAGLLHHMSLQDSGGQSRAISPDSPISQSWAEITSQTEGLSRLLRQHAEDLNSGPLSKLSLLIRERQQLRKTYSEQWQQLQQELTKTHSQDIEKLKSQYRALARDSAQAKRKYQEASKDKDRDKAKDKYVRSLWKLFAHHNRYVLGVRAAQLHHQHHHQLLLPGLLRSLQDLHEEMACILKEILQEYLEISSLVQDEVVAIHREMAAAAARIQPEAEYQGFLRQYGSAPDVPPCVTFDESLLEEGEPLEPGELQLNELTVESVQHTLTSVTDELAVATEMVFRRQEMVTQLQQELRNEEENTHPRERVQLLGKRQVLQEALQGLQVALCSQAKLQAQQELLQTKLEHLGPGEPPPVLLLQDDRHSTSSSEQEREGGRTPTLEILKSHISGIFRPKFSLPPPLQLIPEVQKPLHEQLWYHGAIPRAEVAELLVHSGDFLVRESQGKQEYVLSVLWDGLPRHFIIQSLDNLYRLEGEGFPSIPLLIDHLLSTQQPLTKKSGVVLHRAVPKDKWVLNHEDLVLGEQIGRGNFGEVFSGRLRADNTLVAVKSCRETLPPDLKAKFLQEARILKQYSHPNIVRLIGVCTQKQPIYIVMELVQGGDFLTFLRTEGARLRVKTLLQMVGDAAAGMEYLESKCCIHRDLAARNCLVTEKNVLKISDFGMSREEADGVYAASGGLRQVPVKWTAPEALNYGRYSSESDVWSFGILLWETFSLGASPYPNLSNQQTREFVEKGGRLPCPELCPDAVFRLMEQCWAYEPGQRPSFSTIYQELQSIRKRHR

Structure (SMILES)	inhibition at 10 µM (PRKCZ) [%]	inhibition at 10 µM (FES) [%]	inhibition at 10 µM (MAPKAPK5) [%]	inhibition at 10 µM (EPHA3) [%]	inhibition at 10 µM (RSK3) [%]	inhibition at 10 µM (EPHA1) [%]	inhibition at 10 µM (FYN) [%]	inhibition at 10 µM (EPHB2) [%]	inhibition at 10 µM (PKD3) [%]	inhibition at 10 µM (PKD2) [%]	inhibition at 10 µM (LYN) [%]	inhibition at 10 µM (TEC) [%]	inhibition at 10 µM (DAPK1) [%]	inhibition at 10 µM (FGFR1 V561M) [%]	inhibition at 10 µM (EPHB4) [%]	inhibition at 10 µM (AMPKA1) [%]	inhibition at 10 µM (CAMK2B) [%]	inhibition at 10 µM (GSK3A) [%]	inhibition at 10 µM (TRKC) [%]	inhibition at 10 µM (NUAK1) [%]	also measured
CSc1sc(-c2cc[nH]n2)c2c1C(=O)CCC2 [Example 1, 3-(Methylsulfanyl)-1-(1H-pyrazol-3-yl)-6,7-dihydro-2-benzothiophen-4(5H)-one]	0.4	-2.8	4.4	-2.2	9.4	2.8	1.2	2.6	12	-2.5	10.2	0.6	7.2	4.4	0.6	16.4	6.3	8.5	10.3	44.2	inhibition at 10 µM (LRRK2 (G2019S)): 88.3%; inhibition at 10 µM (INSR): 3.4%; inhibition at 10 µM (BRSK2): -1.7%; inhibition at 10 µM (EGFR): -3.1%; inhibition at 10 µM (EPHA4): -0.8%; inhibition at 10 µM (CAMK2G): 3.1%; inhibition at 10 µM (DYRK3): 11.7%; inhibition at 10 µM (DDR2): 0.8%; inhibition at 10 µM (PAK5): -0.6%; inhibition at 10 µM (AURA): 44%; inhibition at 10 µM (PRKCQ): -0.4%; inhibition at 10 µM (NTRK2): 16.9%; inhibition at 10 µM (MAPKAPK3): 0.1%; inhibition at 10 µM (PDGFR A(550)): 1.5%; inhibition at 10 µM (ITK): 4.8%; inhibition at 10 µM (FLT-3 D835Y): 39.3%; inhibition at 10 µM (MET): 8.2%
CC1(C)CC(=O)c2c(SC3CCCC3)sc(-c3cc[nH]n3)c2C1 [Example 7, 3-(Cyclopentylsulfanyl)-6,6-dimethyl-1-(1H-pyrazol-3-yl)-6,7-dihydro-2-benzothiophen-4(5H)-one]	0.5	-3.1	1.9	-2.9	2	-0.2	2.5	2.3	2.6	-4.2	4	-3.2	-2	7.9	0.1	-0.5	6	-8.3	0.5	-4.2	inhibition at 10 µM (LRRK2 (G2019S); LRRK2 (G2019S), tested at 10 uM): 78.3%; inhibition at 10 µM (INSR): 0.9%; inhibition at 10 µM (BRSK2): -11.1%; inhibition at 10 µM (EGFR): 2.2%; inhibition at 10 µM (EPHA4): -3.5%; inhibition at 10 µM (CAMK2G): 4.4%; inhibition at 10 µM (DYRK3): -8.5%; inhibition at 10 µM (DDR2): -3.9%; inhibition at 10 µM (PAK5): -4.4%; inhibition at 10 µM (AURA): 11%; inhibition at 10 µM (PRKCQ): -4.7%; inhibition at 10 µM (NTRK2): 7%; inhibition at 10 µM (MAPKAPK3): -1%; inhibition at 10 µM (PDGFR A(550)): -13.8%; inhibition at 10 µM (ITK): -2.9%; inhibition at 10 µM (FLT-3 D835Y): 2.7%; inhibition at 10 µM (MET): -0.9%
